Assay results reported in patent US20220331348A1, “METHOD OF PREPARING PENTACYCLIC TRITERPENOID SAPONINS AND DRUG COMPOSITION” (CHINA PHARMACEUTICAL UNIVERSITY, priority 2019, published 2022).

Tests used:
[1] = tested on: ulcerative colitis model mice induced by DSS; assay: Dextran sulphate sodium salt (DSS) induced ulcerative colitis model mice; format: in vivo, mouse; conditions: DSS-induced mice; dose not given; vs model group
Description: C57BL/6 male mice with 6-8 weeks old were selected; a control group was fed with purified water; and a model group, a treatment group and a positive control group were fed with purified water containing 2% dextran sulphate sodium salt (DSS) (36000-50000 M.Wt) for 7 days and then with the purified water for 3 days, and drug intervention was conducted at the same time. The mice in the control group and the model group were orally administered with carboxymethyl cellulose sodium as a placebo, the mice in the treatment group were orally administered with the ziyuglycoside II (purchased from Shanghai Boka Chemistry Technology Co., Ltd) (with a dosage of 5 mg/kg), and the mice in the positive control group were orally administered with 5-aminosalicylic acid as a clinical drug (5-ASA, purchased from Shanghai Sangon Biological Engineering Co., Ltd) (with a dosage of 100 mg/kg). In the administration process, weight changes, feces characters and hematochezia conditions of the mice were observed and recorded every day and were scored, and disease activity indexes were calculated (Disease activity index, DAI).
A scoring rule and a calculation method were as follows: DAT=(weight score+diarrhea score+occult blood score)/3, wherein weight score: 0 (weight gained or unchanged), 1 (weight lost by 1-5%), 2 (weight lost by 6-10%), 3 (weight lost by 11-15%), 4 (weight lost by 15% or above); diarrhea score: 0 (normal feces), 2 (soft feces), 4 (feces sticking anuses or diarrhea); and occult blood score: 0 (negative occult blood), 2 (positive occult blood), and 4 (visible bleeding). Comparing differences in DAI of various groups, it can be known that the ziyuglycoside II has significant prevention and treatment effects on ulcerative colitis of the mice modeled by the dextran sulphate sodium salt (DSS).
The above mice were sacrificed by cervical dislocation at day 11, colon tissues were harvested, lengths of the colon tissues were measured for statistical summary, and differences in colon length of various groups were compared, from which, the ziyuglycoside II has significant prevention and treatment effect on the ulcerative colitis model mice.
Middle segments, with lengths of about 1 cm, of the colon tissues of the above mice were selected, soaked in a formalin solution for fixing overnight, embedded with paraffin and sliced, and the slices were subjected to HE staining. […] Particularly, compared with the positive drug group, the ziyuglycoside II has the advantage of maintaining a thickness of a muscular layer.
10 mg of proximal rectum segments of the colon tissues of the above mice were selected, PBS was added for homogenization, and centrifugation was conducted for taking a supernate. The supernate was subjected to ELISA detection, and protein quantification was conducted for inflammatory factors TNF-α and IL-lb.
10 mg of colon tissues of the above mice were selected for detection of ROS therein.
When the ulcerative colitis occurs, the inflammatory factors may destruct tight junction between intestinal tracts, and destruction of the tight junction enables functions of mucosal barriers to be lost and accelerates development of the diseases. 5 mg of colon tissues of the above mice were selected for qPCR analysis. […] This hints that the ziyuglycoside II further has the efficacy of increasing the expression level of the tight junction and then protecting a structure of each colon. […] Therefore, the ziyuglycoside II is expected to be useful for preparing the drug for preventing or treating the inflammatory bowel diseases such as the ulcerative colitis.

[2] = tested on: TNBS modeled Crohn's disease model mice; assay: 2,4,6-trinitrobenzene sulfonic acid (TNBS) modeled Crohn's disease model mice; format: in vivo, mouse; conditions: dose not given; for expression level of inflammatory factor IL-1β / expression level of inflammatory factor TNF-α: vs model group
Description: C57BL/6 male mice with 6-8 weeks old were selected and randomly divided into a control group, a mode group, a treatment group and a positive control group. Expect for the control group, after the mice in the rest groups anesthetized with isoflurane, hoses were carefully inserted into colons of the mice from anuses, and […] of 1.5% 2,4,6-trinitrobenzene sulfonic acid (TNBS) was slowly injected. Before the hoses were pulled out, the mice were placed upside down for 1 min. First intragastric administration was conducted at the day of enema treatment, the mice in the control group and the model group were orally administered with carboxymethyl cellulose sodium as a placebo, the mice in the treatment group were orally administered with the ziyuglycoside II (purchased from Shanghai Boka Chemistry Technology Co., Ltd) (with a dosage of 5 mg/kg), and the mice in the positive drug group were orally administered with 5-aminosalicylic acid as a clinical drug (5-ASA, purchased from Shanghai Sangon Biological Engineering Co., Ltd) (with a dosage of 100 mg/kg). Administration was continuously conducted for 7 days. In the administration process, the states of the mice were observed every day, and weight changes of the mice were recorded.
Differences in weight change of the mice in various groups were compared, from which, ziyuglycoside II has the treatment effect on the 2, 4, 6-trinitrobenzene sulfonic acid (TNBS) modeled Crohn's disease model mice.
The above mice were sacrificed by cervical dislocation at day 8, colon tissues were harvested, lengths of the colon tissues were measured for statistical summary, and differences in colon length of various groups were compared, from which, the ziyuglycoside II has significant treatment effect on the Crohn's disease model mice. […] 10 mg of proximal rectum segments of the colon tissues of the above mice were selected, PBS was added for homogenization, and centrifugation was conducted for taking a supernate. The supernate was subjected to ELISA detection, and protein quantification was conducted for inflammatory factors TNF- and IL-1. […] Myeloperoxidase (MPO) is an enzyme specific to neutrophils, and the amount of the neutrophils in the intestinal tracts may be reflected by detecting the MPO level. 5 mg of proximal rectum segments of the colon tissues of the above mice were selected, PBS was added for homogenization, and the content of the MPO in a homogenate was detected with a MPO kit (purchased from Nanjing Jiancheng Bioengineering Institute). […] Therefore, the ziyuglycoside II is expected to be useful for preparing the drug for preventing or treating the inflammatory bowel diseases such as the Crohn's disease.

[3] = tested on: human ADPKD cyst lining epithelial cell lines WT9-12; assay: Proliferation of polycystic kidney epithelial cells (CCK-8 method); format: cell-based; conditions: Homo sapiens, Epithelial cell, 48 h
Excerpt: Cell and reagent: complete media for human ADPKD cyst lining epithelial cell lines WT9-12 and DMEM were purchased from ATCC Company; fetal calf serums were purchased from Gibco Company; Cell Counting Kit-8 was purchased from DOJINDO Company; Click-iT® EdU Imaging Kits were purchased from Invitrogen™ Thermo Fisher Scientific Company; Caspase -3/CPP32 Colorimetric Assay Kit was purchased from BioVision Company; Annexin V/PI double-staining flow type cell apoptosis detection kits were purchased from Bender Company; and anti-Phospho-(AMPKa, mTOR, p70S6K, 4E-BP1) antibodies were purchased from Cell Signaling Technology Company.
The influence of 2-DG on proliferation of the polycystic kidney epithelial cells was detected with a CCK-8 method: a DMEM complete medium containing 10% fetal calf serum (FBS) was prepared. The polycystic kidney epithelial cells were cultured in an incubator with 5% CO2 at 37° C. after being recovered, a solution was replaced every other day, the polycystic kidney epithelial cells were passaged every 2-3 days, and the cells were in a growing state of adhering to the wall. After trypsin enzyme digestion, cells were resuspended by using a complete medium, the concentration of a polycystic kidney epithelial cell suspension was regulated to be 3×10^7/L, the polycystic kidney epithelial cell suspension was inoculated to 96-well plate by […] per well for culture for 24 h, and the suspension was replaced by a culture medium containing 0.1% FBS for synchronization for 24 h.

CC1(C)CC[C@]2(C(=O)O[C@@H]3O[C@H](CO[C@@H]4O[C@H](CO)[C@@H](O)[C@H](O)[C@H]4O)[C@@H](O)[C@H](O)[C@H]3O)CC[C@]3(C)C(=CC[C@@H]4[C@@]5(C)CC[C@H](O[C@@H]6OC[C@H](O)[C@H](O)[C@H]6O)[C@@](C)(CO)[C@@H]5CC[C@]43C)[C@@H]2C1 [(II), asperosaponin VI]
DAI scores of the treatment group [1]: obviously lower than those of the model group | colon length of the treatment group compared with the control group [2]: nearly no difference | expression level of inflammatory factor IL-1β [2]: significantly lower than those of the model group | expression level of inflammatory factor TNF-α [2]: significantly lower than those of the model group | IC50 ([3]; WT9-12 cells, CCK-8 (FIG. 15), read-out: median inhibitory concentration (IC50), proliferation of the polycystic kidney epithelial cells): 3.2 µM

C[C@@H]1CC[C@]2(C(=O)O[C@@H]3O[C@H](CO)[C@@H](O)[C@H](O)[C@H]3O)CC[C@]3(C)C(=CC[C@@H]4[C@@]5(C)CC[C@H](O[C@@H]6OC[C@H](O)[C@H](O)[C@H]6O)C(C)(C)[C@@H]5CC[C@]43C)[C@@H]2[C@]1(C)O [(XII), ziyuglycoside I]
DAI scores of the treatment group [1]: obviously lower than those of the model group | colon length of the treatment group compared with the control group [2]: nearly no difference | expression level of inflammatory factor IL-1β [2]: significantly lower than those of the model group | expression level of inflammatory factor TNF-α [2]: significantly lower than those of the model group | inhibition at 10 µM ([3]; polycystic kidney epithelial cells, 10 μM, CCK-8, n = 6, read-out: Inhibition rate (%)): 69.2 ± 1.7%
